Assay results from ChEMBL document CHEMBL1147992, “Glaziovianin A, a new isoflavone, from the leaves of Ateleia glazioviana and its cytotoxic activity against human cancer cells” (Bioorg Med Chem Lett, 2007).
Active and inactive are the calls of the source. No cut-off for these calls is given here.

Assays:
HL-60 = experiment: Cytotoxicity against human HL60 cells by MTT assay after 72 hrs; assay type: functional, cell-based; conditions: HL-60, 72 h
OVCAR-8 = experiment: Cytotoxicity against human OVCAR8 cells by MTT assay after 72 hrs; assay type: functional; conditions: OVCAR-8, 72 h
SK-OV-3 = experiment: Cytotoxicity against human SK-OV3 cells by MTT assay after 72 hrs; assay type: functional; conditions: SK-OV-3, 72 h
[1] = Cytotoxicity against human RXF631L cells by MTT assay after 72 hrs; assay type: functional; conditions: RXF 631, 72 h
ACHN = experiment: Cytotoxicity against human ACHN cells by MTT assay after 72 hrs; assay type: functional
St-4 = experiment: Cytotoxicity against human St4 cells by MTT assay after 72 hrs; assay type: functional; conditions: St-4, 72 h
[2] = Cytotoxicity against human MKN1 cells by MTT assay after 72 hrs; assay type: functional; conditions: MKN-1, 72 h
MKN-7 = experiment: Cytotoxicity against human MKN7 cells by MTT assay after 72 hrs; assay type: functional; conditions: MKN-7, 72 h
[3] = Cytotoxicity against human HBC4 cells by MTT assay after 72 hrs; assay type: functional; conditions: HBC4, 72 h
[4] = Cytotoxicity against human BSY1 cells by MTT assay after 72 hrs; assay type: functional; conditions: BSY-1, 72 h
[5] = Cytotoxicity against human HBC5 cells by MTT assay after 72 hrs; assay type: functional; conditions: HBC5, 72 h
MCF7 = experiment: Cytotoxicity against human MCF7 cells by MTT assay after 72 hrs; assay type: functional; conditions: MCF7, 72 h
MDA-MB-231 = experiment: Cytotoxicity against human MDA-MB-231 cells by MTT assay after 72 hrs; assay type: functional; conditions: MDA-MB-231, 72 h
U-251 = experiment: Cytotoxicity against human U251 cells by MTT assay after 72 hrs; assay type: functional; conditions: U-251, 72 h
SF-268 = experiment: Cytotoxicity against human SF268 cells by MTT assay after 72 hrs; assay type: functional; conditions: SF-268, 72 h
SF-295 = experiment: Cytotoxicity against human SF295 cells by MTT assay after 72 hrs; assay type: functional; conditions: SF-295, 72 h
SF-539 = experiment: Cytotoxicity against human SF539 cells by MTT assay after 72 hrs; assay type: functional; conditions: SF-539, 72 h
SNB-75 = experiment: Cytotoxicity against human SNB75 cells by MTT assay after 72 hrs; assay type: functional; conditions: SNB-75, 72 h
SNB-78 = experiment: Cytotoxicity against human SNB78 cells by MTT assay after 72 hrs; assay type: functional; conditions: SNB-78, 72 h
HCC 2998 = experiment: Cytotoxicity against human HCC2998 cells by MTT assay after 72 hrs; assay type: functional; conditions: HCC 2998, 72 h
KM12 = experiment: Cytotoxicity against human KM12 cells by MTT assay after 72 hrs; assay type: functional; conditions: KM12, 72 h
HT-29 = experiment: Cytotoxicity against human HT29 cells by MTT assay after 72 hrs; assay type: functional; conditions: HT-29, 72 h
HCT-15 = experiment: Cytotoxicity against human HCT15 cells by MTT assay after 72 hrs; assay type: functional; conditions: HCT-15, 72 h
HCT-116 = experiment: Cytotoxicity against human HCT116 cells by MTT assay after 72 hrs; assay type: functional; conditions: HCT-116, 72 h
NCI-H23 = experiment: Cytotoxicity against human NCIH23 cells by MTT assay after 72 hrs; assay type: functional; conditions: NCI-H23, 72 h
[6] = Cytotoxicity against human […] cells by MTT assay after 72 hrs; assay type: functional
NCI-H522 = experiment: Cytotoxicity against human NCIH522 cells by MTT assay after 72 hrs; assay type: functional; conditions: NCI-H522, 72 h
NCI-H460 = experiment: Cytotoxicity against human NCIH460 cells by MTT assay after 72 hrs; assay type: functional; conditions: NCI-H460, 72 h
A549 = experiment: Cytotoxicity against human A549 cells by MTT assay after 72 hrs; assay type: functional; conditions: A549, 72 h
DMS-273 = experiment: Cytotoxicity against human DMS273 cells by MTT assay after 72 hrs; assay type: functional; conditions: DMS-273, 72 h
DMS-114 = experiment: Cytotoxicity against human DMS114 cells by MTT assay after 72 hrs; assay type: functional; conditions: DMS-114, 72 h
LOX IMVI = experiment: Cytotoxicity against human LOX-IMVI cells by MTT assay after 72 hrs; assay type: functional
OVCAR-3 = experiment: Cytotoxicity against human OVCAR-3 cells by MTT assay after 72 hrs; assay type: functional; conditions: OVCAR-3, 72 h
OVCAR-4 = experiment: Cytotoxicity against human OVCAR4 cells by MTT assay after 72 hrs; assay type: functional; conditions: OVCAR-4, 72 h
OVCAR-5 = experiment: Cytotoxicity against human OVCAR5 cells by MTT assay after 72 hrs; assay type: functional; conditions: OVCAR-5, 72 h
MKN-28 = experiment: Cytotoxicity against human MKN28 cells by MTT assay after 72 hrs; assay type: functional; conditions: MKN-28, 72 h
MKN-45 = experiment: Cytotoxicity against human MKN45 cells by MTT assay after 72 hrs; assay type: functional; conditions: MKN-45, 72 h
MKN-74 = experiment: Cytotoxicity against human MKN74 cells by MTT assay after 72 hrs; assay type: functional; conditions: MKN-74, 72 h
DU-145 = experiment: Cytotoxicity against human DU145 cells by MTT assay after 72 hrs; assay type: functional; conditions: DU-145, 72 h
PC-3 = experiment: Cytotoxicity against human PC3 cells by MTT assay after 72 hrs; assay type: functional; conditions: PC-3, 72 h
3Y1 = experiment: Disruption of microtubules in rat 3Y1 cells at 1 uM after 18 hrs; assay type: functional, cell-based
[7] = Cell cycle arrest in rat 3Y1 cells by accumulation at M phase at 3 uM after 18 hrs; assay type: functional, cell-based

Work on `COc1cc2occ(-c3cc4c(cc3OC)OCO4)c(=O)c2cc1OC` yielded an IC50 (HL-60) of 16000 nM.
`COc1ccc(-c2coc3cc(OC)c(OC)cc3c2=O)cc1OC` showed an IC50 (HL-60) of 23000 nM.
`COc1cc(OC)c(-c2coc3cc(OC)c(OC)cc3c2=O)cc1OC` showed an IC50 (HL-60) of 8500 nM.
`COc1cc2occ(-c3cc(OC)c4c(c3OC)OCO4)c(=O)c2cc1OC` [GLAZIOVIANIN A] gave a GI50 (OVCAR-8) of 1510 nM, a GI50 (SK-OV-3) of 280 nM and a GI50 [1] of 510 nM. It also gave a GI50 (ACHN) of 620 nM, a GI50 (St-4) of 15100 nM and a GI50 [2] of 690 nM. The GI50 (MKN-7) was 1510 nM, the IC50 (HL-60) was 290 nM and the GI50 [3] was 1950 nM. It also gave a GI50 [4] of 50 nM, a GI50 [5] of 470 nM and a GI50 (MCF7) of 390 nM. For the same compound, the GI50 (MDA-MB-231) was 1100 nM, the GI50 (U-251) was 790 nM and the GI50 (SF-268) was 830 nM. The GI50 (SF-295) was 340 nM, the GI50 (SF-539) was 320 nM and the GI50 (SNB-75) was 630 nM. For the same compound, the GI50 (SNB-78) was 10700 nM, the GI50 (HCC 2998) was 3020 nM and the GI50 (KM12) was 320 nM. For the same compound, the GI50 (HT-29) was 460 nM, the GI50 (HCT-15) was 290 nM and the GI50 (HCT-116) was 560 nM. It also gave a GI50 (NCI-H23) of 5130 nM, a GI50 [6] of 580 nM and a GI50 (NCI-H522) of 230 nM. The GI50 (NCI-H460) was 410 nM, the GI50 (A549) was 830 nM and the GI50 (DMS-273) was 130 nM. The GI50 (DMS-114) was 200 nM, the GI50 (LOX IMVI) was 870 nM and the GI50 (OVCAR-3) was 130 nM. For the same compound, the GI50 (OVCAR-4) was 10500 nM, the GI50 (OVCAR-5) was 2190 nM and the GI50 (MKN-28) was 450 nM. For the same compound, the GI50 (MKN-45) was 680 nM, the GI50 (MKN-74) was 390 nM and the GI50 (DU-145) was 590 nM. For the same compound, the GI50 (PC-3) was 100 nM, the Activity (3Y1) was “Active” and the Activity [7] was “Active”.
